The supplement of paper PMC10307832

Legend:
Assay in all cases: relative viability (nuclei count vs DMSO), 5 days (fraction); higher = more cells survive
[1] = compound: CC1=CC=C(C=C1)C(=O)CN2C3=C(CCCC3)SC2=N [Pifithrin_alpha] + C[C@]1(O)C[C@@H](c2nc(-c3ccc4ccc(-c5ccccc5)nc4c3)c3c(N)nccn32)C1 [Linsitinib] (partner 1 µM)
Outline: (§1)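 After 5 days of treatment, lung cancer cells in 1536-well plates were fixed and stained in a single step (final 0.05% Triton X-100, 1% formaldehyde, 1 ug/ml Hoechst) and their nuclei counted on 4× images. Treatment had been applied by pin tool the day after seeding as one drug alone or as a fixed anchor-drug dose with five library-drug doses (not always all listed) in √10 steps. Relative viability is the nuclei count of treated wells divided by that of vehicle wells, and values are medians of duplicate plates.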

[2] = compound: Nc1nc(Nc2ccc3c(c2)CC[C@@H](N2CCCC2)CC3)nn1-c1cc2c(nn1)-c1ccccc1CCC2 [Bemcentinib] + Cc1cc(Nc2cc(N3CCN(C)CC3)nc(Sc3ccc(NC(=O)C4CC4)cc3)n2)n[nH]1 [Tozasertib] (partner 0.1 µM)
Outline: as §1

[3] = compound: Nc1nc(Nc2ccc3c(c2)CC[C@@H](N2CCCC2)CC3)nn1-c1cc2c(nn1)-c1ccccc1CCC2 [Bemcentinib] + C[C@]1(O)C[C@@H](c2nc(-c3ccc4ccc(-c5ccccc5)nc4c3)c3c(N)nccn32)C1 [Linsitinib] (partner 1 µM)
Outline: as §1

[4] = compound: CC1=CC=C(C=C1)C(=O)CN2C3=C(CCCC3)SC2=N [Pifithrin_alpha] + COc1cc2c(Oc3ccc(NC(=O)C4(C(=O)Nc5ccc(F)cc5)CC4)cc3F)ccnc2cc1OCCCN1CCOCC1 [Foretinib] (partner 0.25 µM)
Outline: as §1

Row | Cell Line | relative viability ([1]; first compound 1 µM) | relative viability ([1]; first compound 3.162 µM) | relative viability ([1]; first compound 10 µM) | relative viability ([1]; first compound 100 µM) | relative viability ([2]; first compound 0.04 µM) | relative viability ([2]; first compound 0.1265 µM) | relative viability ([2]; first compound 0.4 µM) | relative viability ([2]; first compound 1.265 µM) | relative viability ([2]; first compound 4 µM) | relative viability ([3]; first compound 0.04 µM) | relative viability ([3]; first compound 0.1265 µM) | relative viability ([3]; first compound 0.4 µM) | relative viability ([3]; first compound 1.265 µM) | relative viability ([3]; first compound 4 µM) | relative viability ([4]; first compound 1 µM) | relative viability ([4]; first compound 3.162 µM) | relative viability ([4]; first compound 10 µM) | relative viability ([4]; first compound 100 µM) | relative viability ([1]; first compound 31.62 µM) | relative viability ([4]; first compound 31.62 µM)
1 | COR-L23 | 0.974 | 1.02 | 0.882 | 0.871 | 0.232 | 0.167 | 0.225 | 0.211 | 0.183 | 1.04 | 0.935 | 1.2 | 1.17 | 0.844 | 0.955 | 0.987 | 0.97 | 0.928 | – | –
2 | COR-L 105 | 0.786 | 0.713 | 0.859 | 0.662 | 0.306 | 0.358 | 0.317 | 0.336 | 0.345 | 0.975 | 0.943 | 1.15 | 1.02 | 0.871 | 1.08 | 0.976 | 1.13 | 0.734 | 0.573 | 0.897
3 | EKVX | 1.05 | 0.644 | 0.705 | 0.739 | 0.39 | 0.468 | 0.39 | 0.437 | 0.374 | 1.06 | 1.19 | 1.15 | 1.26 | 1.15 | 0.744 | – | 0.736 | 0.636 | 0.615 | 0.731
4 | EMC-BAC-2 | 0.799 | 0.859 | 0.765 | 0.927 | 0.264 | 0.281 | 0.285 | 0.305 | 0.301 | 0.816 | 0.845 | 0.879 | 0.889 | 0.871 | 0.912 | 0.932 | 0.968 | 0.818 | 0.745 | –
5 | EPLC-272H | – | 1.07 | 1.21 | 1.11 | 0.281 | 0.207 | 0.249 | 0.252 | 0.261 | – | 1.08 | 1.28 | 1.16 | 1.19 | 0.601 | 0.66 | 0.632 | 0.695 | 0.995 | 0.424
6 | H3255 | 1.02 | 0.969 | 0.919 | 0.962 | 0.566 | 0.678 | 0.619 | 0.782 | 0.655 | 0.89 | 1.22 | 1.04 | 1.02 | 0.888 | 0.716 | 0.949 | 0.827 | 0.92 | 0.672 | 0.777
7 | HARA | 0.988 | 1.02 | 0.9 | 0.857 | 0.12 | 0.139 | 0.106 | 0.102 | 0.102 | 1.01 | 1.07 | 1.01 | 0.994 | 1.05 | – | 1.08 | 0.978 | 0.656 | 0.542 | –
8 | HCC-15 | 0.937 | 0.977 | 0.868 | 0.894 | 0.381 | 0.488 | 0.401 | 0.365 | 0.392 | 0.828 | 0.983 | 0.923 | 0.904 | 0.93 | 1.08 | 1.05 | 0.93 | 0.789 | 0.593 | 0.731
9 | HCC-78 | 0.481 | 0.54 | 0.513 | 0.584 | 0.43 | 0.445 | 0.421 | – | 0.355 | 0.572 | 0.56 | 0.49 | 0.634 | 0.806 | 0.592 | 0.551 | 0.486 | 0.523 | – | 0.467
10 | HCC-366 | 0.512 | 0.508 | 0.581 | 0.469 | 0.125 | 0.101 | 0.119 | 0.149 | 0.11 | 0.612 | 0.921 | 1.14 | 0.604 | 0.881 | 0.896 | 0.906 | 0.915 | 0.527 | – | –
11 | HCC-827 | 0.942 | 0.96 | 0.91 | 0.841 | 0.474 | 0.458 | 0.421 | 0.408 | 0.417 | 0.952 | 0.992 | 0.936 | 0.947 | 0.988 | 1.01 | 0.996 | 0.84 | 0.857 | 0.589 | 0.597
12 | HOP-62 | 1.01 | 0.979 | 1.18 | 1.07 | 0.379 | 0.413 | 0.35 | 0.39 | 0.387 | 1.12 | 0.986 | – | 1.08 | 0.99 | 1.17 | 1.16 | 1.18 | 1.19 | 0.781 | 1.03
13 | LC-2-ad | 0.849 | 0.846 | 0.804 | 0.767 | 0.451 | 0.478 | 0.451 | 0.486 | 0.442 | 0.831 | 0.851 | 0.835 | 0.888 | 0.894 | – | 0.902 | 0.904 | 0.871 | 0.547 | –
14 | LCLC-97TM1 | – | 0.207 | 0.206 | 0.225 | 0.214 | 0.214 | 0.22 | 0.246 | 0.186 | 0.183 | 0.216 | – | 0.204 | 0.196 | 0.954 | 1.08 | 0.934 | 0.909 | – | 0.496
15 | LCLC-103H | 0.915 | 0.954 | 1.09 | 1.18 | 0.442 | 0.484 | 0.539 | 0.478 | 0.474 | 1.17 | 1.09 | 1.11 | 1.27 | 1.22 | 0.729 | 0.787 | 0.84 | 0.824 | 0.986 | 0.514
16 | LK-2 | 0.608 | 0.728 | 0.544 | 0.646 | 0.166 | 0.164 | 0.19 | 0.178 | 0.168 | 0.836 | 0.57 | 0.677 | 0.551 | 1.05 | 1.18 | 1.64 | 1.48 | 1.62 | – | –
17 | LOU-NH91 | 0.789 | 0.849 | 0.828 | 0.846 | 0.651 | 0.639 | 0.635 | 0.709 | 0.63 | 0.942 | 0.895 | 0.959 | 0.943 | 0.956 | 0.841 | 0.874 | 0.935 | 0.874 | 0.753 | 0.868
18 | LU99A | 0.539 | 0.64 | 0.619 | 0.529 | 0.263 | 0.31 | 0.248 | 0.264 | 0.258 | 0.524 | 0.555 | 0.56 | 0.499 | 0.562 | 0.772 | 0.866 | 0.861 | 0.776 | – | 0.398
19 | LXF-289 | 0.985 | 0.967 | 0.959 | 0.961 | 0.179 | 0.2 | 0.185 | 0.185 | 0.205 | 0.955 | 1.06 | 0.972 | 0.991 | 0.995 | 1.02 | 1.05 | 0.995 | 1.01 | 0.869 | 0.888
20 | NCI-H23 | 0.543 | 0.546 | 0.567 | 0.515 | 0.389 | 0.632 | 0.327 | 0.407 | 0.366 | 0.576 | 0.692 | 0.554 | 0.72 | 0.568 | 0.9 | 1.19 | 1.08 | 0.872 | 0.443 | –
21 | NCI-H322M | 0.85 | 0.898 | 0.902 | 1.04 | 0.5 | 0.582 | 0.483 | 0.527 | 0.525 | 0.994 | 0.978 | 0.9 | 1.01 | 1.04 | 0.91 | 1.03 | 0.964 | 0.839 | 0.821 | 0.929
22 | NCI-H358 | 0.777 | 0.83 | 0.671 | 0.541 | 0.11 | 0.129 | 0.106 | 0.0963 | 0.119 | 0.77 | 0.795 | 0.788 | 0.668 | 0.796 | 0.773 | 0.777 | 0.645 | 0.541 | 0.547 | 0.467
23 | NCI-H441 | 0.52 | 0.528 | 0.613 | 0.662 | 0.733 | 0.847 | 0.781 | 0.649 | 0.611 | 0.525 | 0.702 | 0.76 | 0.496 | 0.581 | 0.974 | 1.17 | 1.04 | 0.925 | 0.478 | –
24 | NCI-H460 | 0.764 | 0.795 | 0.906 | 0.563 | 0.432 | 0.619 | 0.525 | 0.364 | 0.524 | 0.907 | 1.04 | 1.08 | 0.983 | 0.86 | 1.06 | 0.974 | 0.933 | 0.631 | – | 0.492
25 | NCI-H520 | 1.07 | 1.07 | 0.946 | 1.12 | 0.526 | 0.379 | 0.411 | 0.452 | 0.484 | 0.85 | 0.982 | 1.08 | 1.01 | 1.18 | 0.793 | 1.17 | 0.852 | 0.81 | 0.623 | 0.528
26 | NCI-H596 | 1.04 | 1.2 | 1.21 | 1.16 | 0.87 | 1.05 | 1.14 | 0.94 | 0.799 | 1.03 | 1.03 | 1.03 | 1.17 | 1.06 | 0.924 | 0.737 | 0.823 | 0.958 | 1.11 | 0.735
27 | NCI-H647 | 1.27 | 1.2 | 1.02 | 0.748 | 0.304 | 0.286 | 0.28 | 0.317 | 0.246 | 1.17 | 1.35 | 1.12 | 1.28 | 1.17 | 1.07 | 1.25 | 1.04 | 1.11 | – | 0.724
28 | NCI-H661 | 0.669 | 0.616 | 0.565 | 0.598 | 0.357 | 0.344 | 0.338 | 0.34 | 0.339 | 0.587 | 0.53 | 0.609 | 0.656 | 0.548 | 0.996 | 1 | 0.981 | 0.904 | 0.68 | 0.94
